Measurements: patent US11065249B2, “Diacylglycerol acyl transferase 2 inhibitor” (Pfizer Inc., priority 2019, dated 2021)
Where a name gives a salt, the structure may show the parent alone.

Assays:
human DGAT2 (hDGAT2) = human DGAT2 (hDGAT2) (Homo sapiens (Human), UniProt Q96PD7); assay: In vitro DGAT2 assay, determination of IC50 values for DGAT2 inhibitors; format: biochemical; conditions: inhibition of DGAT2, hDGAT2 membrane fractions; geometric mean
Protocol: Recombinant baculovirus for the FLAG-tagged hDGAT2 was generated in SF9 insect cells using Bac-to-Bac baculovirus expression system (Invitrogen) according to the manufacturer's protocol. For the expression of hDGAT2, SF9 cells (20 L) grown in Sf900II media were infected with hDGAT2 baculovirus at a multiplicity of infection of 1 in a Wave Bioreactor System 20/50P wave bag (GE Healthcare). After 40 hours of infection, the cells were then harvested by centrifugation at 5,000×g. The cell pellets were washed by resuspending in phosphate buffered saline (PBS) and collected by centrifugation at 5,000×g. The cell paste was flash frozen in liquid N2 and stored at −80° C. until needed. All operations below were at 4° C. unless otherwise noted. The cells were resuspended in lysis buffer (50 mM Tris-HCl, pH 8.0, 250 mM sucrose) including 1 mM ethylenediaminetetraacetic acid (EDTA) and the complete protease inhibitor cocktail (Roche Diagnostics) at a ratio of 3 mL buffer per 1 g cell paste. The cells were lysed by dounce homogenizer. The cell debris was removed by centrifugation at 1,000×g for 20 min, and the supernatant was centrifuged at 100,000×g for 1 hour. The resulting pellet was rinsed three times by filling ultracentrifuge tubes to the top with ice cold PBS before decanting. The washed pellet was resuspended with gentle stirring for 1 hour in lysis buffer containing 8 mM 3-[(3-cholamidopropyl)dimethylammonio]-1-propanesulfonate (CHAPS) at a ratio of 1 mL buffer per 1 g of original cell paste and centrifuged again at 100,000×g for 1 hour. The resulting supernatant was aliquotted, flash frozen in liquid N2, and stored at −80° C. until use.
To 1 μL of compounds dissolved in 100% DMSO and spotted at the bottom of each well, 5 μL of 0.04% bovine serum albumin (BSA) (fatty acid free, Sigma Aldrich) was added and the mixture was incubated at room temperature for 15 minutes. hDGAT2 membrane fractions were diluted in 100 mM Hepes-NaOH, pH 7.4, 20 mM MgCl2 containing 200 nM methyl arachidonyl fluorophosphonate (Cayman Chemical, dried from ethyl acetate stock solution under argon gas and dissolved in DMSO as 5 mM stock). 10 μL of this enzyme working solution was added to the plates and incubation continued for 2 hours at room temperature. DGAT2 reactions were initiated by the addition of 4 μL of substrates containing 30 μM [1-^14C]decanoyl-CoA (custom-synthesized by Perkin Elmer, 50 mCi/mmol) and 125 μM 1,2-didecanoyl-sn-glycerol (Avanti Polar Lipids) dissolved in 12.5% acetone. The reaction mixtures were incubated at room temperature for 40 min and the reactions were stopped by addition of 5 μL of 1% H3PO4. After the addition of 45 μL MicroScint-E (Perkin-Elmer), plates were sealed with Top Seal-A covers (Perkin-Elmer) and phase partitioning of substrates and products was achieved using a HT-91100 microplate orbital shaker (Big Bear Automation, Santa Clara, Calif.). Plates were centrifuged at 2,000×g for 1 minute in an Allegra 6R Centrifuge (Beckman Coulter) and then were sealed again with fresh covers before reading in a 1450 Microbeta Wallac Trilux Scintillation Counter (Perkin Elmer). DGAT2 activity was measured by quantifying the generated product [^14C]tridecanoylglycerol in the upper organic phase.
Inhibitors were tested at eleven different concentrations to generate IC50 values for each compound.

[1] = Determination of pKa (capillary electrophoresis, Analiza); format: physicochemical; conditions: most basic pKa, mean
[2] = High throughput determination of intrinsic clearance in human hepatocytes; format: in vitro ADME; conditions: human, pooled cryopreserved human hepatocytes (suspension), high throughput human hepatocyte assay, 1 μM test compound; mean +/− Std Dev
Protocol: (§1) The incubation was carried out at 37° C. […] The samples were centrifuged (Eppendorf, Hauppauge, N.Y.) at 3000 rpm for 5 min at 4° C.

[3] = Intrinsic clearance in human liver microsomes; format: in vitro ADME; conditions: 1 μM test compound, mean +/− STD Dev; for microsomal CLint at 1 μM: human, pooled human liver microsomes, pH 7.4, human liver microsome assay; for CLint (+/−STD Dev): human liver microsome assay
Protocol: The incubations were conducted at 37° C. […] (Sorvall R C 3C Plus, Thermo Scientific, Waltham, Mass.).

human hepatocytes = assay: High throughput determination of intrinsic clearance in human hepatocytes; format: in vitro ADME; conditions: high throughput human hepatocyte assay, 1 μM test compound; mean +/− Std Dev
Protocol: as §1

Chain of human DGAT2 (hDGAT2) (Q96PD7 whole entry): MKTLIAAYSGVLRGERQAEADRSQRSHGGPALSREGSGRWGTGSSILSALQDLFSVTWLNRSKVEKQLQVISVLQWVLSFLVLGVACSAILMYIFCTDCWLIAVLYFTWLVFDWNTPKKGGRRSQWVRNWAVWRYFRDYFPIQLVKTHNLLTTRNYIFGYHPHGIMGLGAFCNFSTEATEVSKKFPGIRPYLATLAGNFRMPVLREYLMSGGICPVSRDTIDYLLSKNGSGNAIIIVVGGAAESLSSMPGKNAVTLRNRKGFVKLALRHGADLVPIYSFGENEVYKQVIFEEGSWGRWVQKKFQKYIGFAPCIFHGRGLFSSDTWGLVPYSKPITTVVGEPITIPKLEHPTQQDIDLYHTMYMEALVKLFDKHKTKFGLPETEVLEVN

IC50 (human DGAT2 (hDGAT2)) [nM] | pKa [1] | hepatocyte CLint at 1 μM [2] [µL/min/1e6 cells] | microsomal CLint at 1 μM [3] [µL/min/mg] | CLint (+/−STD Dev) ([3]; trifluoroacetate salt) [µL/min/mg] | Basic pKa [1] | CLint (+/−STD Dev) [3] [µL/min/mg] | CLint (+/−Std Dev) (human hepatocytes) | SMILES
19 | 4 | 54 | > 290 | – | – | – | – | CCOc1cccnc1Oc1cncc(-c2ncc(C(=O)N[C@H]3CC[C@H](C(F)(F)F)NC3)cn2)c1 (racemic) [Example 9, rac-2-{5-[(3-ethoxypyridin-2-yl)oxy]pyridin-3-yl}-N-[(3R,6S)-6-(trifluoromethyl)piperidin-3-yl]pyrimidine-5-carboxamide or rac-2-{5-[(3-ethoxypyridin-2-yl)oxy]pyridin-3-yl}-N-[(3R,6R)-6-(trifluoromethyl)piperidin-3-yl]pyrimidine-5-carboxamide]
2100 | – | – | 8.9 | – | – | – | – | CCOc1cccnc1Oc1cncc(-c2ncc(C(=O)N[C@H]3CNCC[C@H]3C)cn2)c1 (racemic) [Example 20, rac-2-{5-[(3-ethoxypyridin-2-yl)oxy]pyridin-3-yl}-N-[(3R,4R)-4-methylpiperidin-3-yl]pyrimidine-5-carboxamide, trifluoroacetate salt]
16000 | – | – | < 8 | – | – | – | – | CCOc1cccnc1Oc1cncc(-c2ncc(C(=O)N[C@@H]3CNCC[C@H]3C)cn2)c1 (racemic) [Example 24, rac-2-{5-[(3-ethoxypyridin-2-yl)oxy]pyridin-3-yl}-N-[(3R,4S)-4-methylpiperidin-3-yl]pyrimidine-5-carboxamide, trifluoroacetate salt]
650 | 5.3 | – | < 14 | – | – | – | – | CCOc1cccnc1Oc1cncc(-c2ncc(C(=O)N[C@H]3CCC(C(F)(F)F)NC3)cn2)c1 (single isomer, unassigned) [Example 8, rac-2-{5-[(3-ethoxypyridin-2-yl)oxy]pyridin-3-yl}-N-[(3R,6S)-6-(trifluoromethyl)piperidin-3-yl]pyrimidine-5-carboxamide or rac-2-{5-[(3-ethoxypyridin-2-yl)oxy]pyridin-3-yl}-N-[(3R,6R)-6-(trifluoromethyl)piperidin-3-yl]pyrimidine-5-carboxamide]
480 | 6.4 | – | – | 17 | – | – | – | CCOc1cccnc1Oc1cncc(-c2ncc(C(=O)N[C@H]3CNCCC3(F)F)cn2)c1 (single isomer, unassigned) [Example 16, N-[(3S)-4,4-difluoropiperidin-3-yl]-2-{5-[(3-ethoxypyridin-2-yl)oxy]pyridin-3-yl}pyrimidine-5-carboxamide, trifluoroacetate salt or N-[(3R)-4,4-difluoropiperidin-3-yl]-2-{5-[(3-ethoxypyridin-2-yl)oxy]pyridin-3-yl}pyrimidine-5-carboxamide, trifluoroacetate salt]
240 | – | – | – | – | 5.2 | 34 ± 1.9 | – | CCOc1cccnc1Oc1cncc(-c2ncc(C(=O)N[C@@H]3CNCC(F)(F)C3)cn2)c1 (single isomer, unassigned) [Example 19, N-[(3S)-5,5-difluoropiperidin-3-yl]-2-{5-[(3-ethoxypyridin-2-yl)oxy]pyridin-3-yl}pyrimidine-5-carboxamide or N-[(3R)-5,5-difluoropiperidin-3-yl]-2-{5-[(3-ethoxypyridin-2-yl)oxy]pyridin-3-yl}pyrimidine-5-carboxamide]
39 | – | 27 | 270 | – | 4.7 | – | – | CCOc1cccnc1Oc1cncc(-c2ncc(C(=O)NC3CCC(C(F)(F)F)NC3)cn2)c1 (single isomer, unassigned; ent-1) [Example 10, 2-{5-[(3-ethoxypyridin-2-yl)oxy]pyridin-3-yl}-N-[6-(trifluoromethyl)piperidin-3-yl]pyrimidine-5-carboxamide, trifluoroacetate salt, ENT-1]
4.4 | 4.5 | – | – | – | – | >290 | – | CCOc1cccnc1Oc1cncc(-c2ncc(C(=O)NC3CCC(C(F)(F)F)NC3)cn2)c1 (single isomer, unassigned; ent-2) [Example 11, 2-{5-[(3-ethoxypyridin-2-yl)oxy]pyridin-3-yl}-N-[6-(trifluoromethyl)piperidin-3-yl]pyrimidine-5-carboxamide, trifluoroacetate salt, ENT-2]
– | – | – | – | – | 8.1 | <7 | <1.9 +/− 0.35 μL/min/10^6 cells | CCOc1cccnc1Oc1cncc(-c2ncc(C(=O)N[C@@H]3CNCC[C@@H]3F)cn2)c1 [Example 3, 2-{5-[(3-Ethoxypyridin-2-yl)oxy]pyridin-3-yl}-N-[(3R,4S)-4-fluoropiperidin-3-yl]pyrimidine-5-carboxamide, bis(trifluoroacetate) salt]
– | 5.4 | 8.3 | 23 | – | – | – | – | CCOc1cccnc1Oc1cncc(-c2ncc(C(=O)NC3CNCC(F)(F)C3)cn2)c1 (stereo not shown) [Example 17, N-(5,5-difluoropiperidin-3-yl)-2-{5-[(3-ethoxypyridin-2-yl)oxy]pyridin-3-yl}pyrimidine-5-carboxamide]
– | – | – | – | – | – | 30 | 9.3 +/− 1.1 μL/min/10^6 cells | CCOc1cccnc1Oc1cncc(-c2ncc(C(=O)NC3(C)CCS(=O)(=O)C3)cn2)c1 (stereo not shown) [WO2018033832 Ex. 3.1]
– | – | – | – | – | – | <8 | 5.1 +/− 0.69 μL/min/10^6 cells | CCOc1cccnc1Oc1cncc(-c2ncc(C(=O)NC3CCS(=O)(=O)C3)cn2)c1 (stereo not shown) [WO2018033832 Ex. 3.3]
– | – | – | – | – | – | <9.6 | 9.3 +/− 0.52 μL/min/10^6 cells | CCOc1cc(F)cnc1Oc1cncc(-c2ncc(C(=O)N[C@H]3CCOC3)cn2)c1 [WO2018033832 Ex. 8]

SMILES | IC50 (human DGAT2 (hDGAT2)) [nM] | pKa [1] | hepatocyte CLint at 1 μM [2] [µL/min/1e6 cells] | microsomal CLint at 1 μM [3] [µL/min/mg] | CLint (+/−STD Dev) ([3]; trifluoroacetate salt) [µL/min/mg] | Basic pKa [1] | CLint (+/−STD Dev) [3] [µL/min/mg] | CLint (+/−Std Dev) (human hepatocytes)
CCOc1cc(F)cnc1Oc1cncc(-c2ncc(C(=O)N[C@@H]3CNCC[C@@H]3F)cn2)c1 [Example 1, 2-{5-[(3-Ethoxy-5-fluoropyridin-2-yl)oxy]pyridin-3-yl}-N-[(3R,4S)-4-fluoropiperidin-3-yl]pyrimidine-5-carboxamide, bis(trifluoroacetate) salt] | 5.8 | – | – | – | – | 7.7 | <7 | <2.7 +/− 0.72 μL/min/10^6 cells
